# Where “and” joins values, the source holds several entries; their conditions need not be identical. Equal entries are not always repeated. Entries after “also recorded” stand apart in the source; their conditions may differ.
# Key:
# [1] = Apparent pKa of LNPs by TNS fluorescent probe; type: physicochemical; details: LNP made with the named ionizable lipid; pH at 50% of maximum TNS fluorescence
# Text: This example describes the fluorescent dye based method used for measurement of the apparent pKa of the lipid nanoparticles. Apparent pKa determines the nanoparticle surface charge under physiological pH conditions, typically a pKa value in the endosomal pH range (6-7.4) results in LNPs that are neutral or slightly charged at plasma or the extracellular space (pH 7.4) and become strongly positive under acidic endosomal environments. This positive surface charge drives fusion of the LNP surface with negatively charged endosomal membranes resulting in destabilization and rupture of the endosomal compartment and LNP escape into the cytosolic compartment, a critical step in cytosolic delivery of mRNA and protein expression via engagement of the cells ribosomal machinery.
# The apparent pKa of LNPs made using ionizable Lipids 2, 5 (synthesized as described in example 1), 6 and 7 (synthesized using method analogous to Lipid 2, 5, respectively, except using diethyl amine instead of dimethyl amine to incorporate the tertiary amine head group) were determined by 6-(p-Toluidino)-2-naphthalenesulfonic acid (TNS) fluorescence measurement in aqueous buffers covering a range of pH values (pH 4-pH 10). TNS is non-fluorescent when free in solution, but which fluoresces strongly when associated with a positively charged lipid nanoparticle. At a pH values below the pKa of the nanoparticle, positive LNP surface charge results in dye recruitment at the particle interface resulting in TNS fluorescence. At pH values above the LNP pKa no fluorescence is observed. The apparent pKa of the LNP is reported as the pH at which the fluorescence is at 50% of its maximum, as determined using a four-point logistic curve fit.
# [2] = Zeta potential of LNPs by laser Doppler electrophoresis in 5 mM pH 5.5 MES and 5 mM pH 7.4 HEPES buffer; type: physicochemical; details: pH 5.5 MES and pH 7.4 HEPES buffer
# Method: (§1) Samples of the LNPs produced in Example 2 were characterized to determine the average hydrodynamic diameter, zeta potential, and mRNA content (total and dye-accessible). The hydrodynamic diameter was determined by dynamic light scattering (DLS) using a Zetasizer model ZEN3600 (Malvern Pananalytical, UK). The zeta potential was measured in 5 mM pH 5.5 MES buffer and 5 mM pH 7.4 HEPES buffer by laser Doppler electrophoresis using the Zetasizer.
# [3] = tested on: primary human T-cells (CD3+ T cells); assay: In vitro LNP transfection of primary human T-cells (GFP, Cy5 or DiI, viability by FACS); type: cell-based
# Text: This example describes the protocol used for in vitro LNP transfections in primary human T-cells. This method is used to assess LNP in vitro efficacy in relevant target cells (CD3+ T cells) by first transfecting the cells using LNPs loaded with mRNA encoding for a reporter gene, such as GFP mRNA, and then assessing transfection by measuring reporter gene expression by fluorescence-[…] cell sorting (FACS). Additionally, particle association with cells may be observed by in the same assay by labeling individual nanoparticle components, such as the mRNA, with a fluorescent dye, such as Cy5, and then observing cell/dye association by FACS.
# CD3+ T cells were isolated from frozen peripheral blood mononuclear cells using an EasySep Human T Cell Isolation Kit on a RoboSep automated cell isolation system from […]. T cells were plated into a flat bottom 96-well plate in RPMI cell culture media supplemented with glutamax, 10% fetal bovine serum, and 40 ng/mL IL2. 100 μL of cell suspension was seeded per well at a density of 1M T cells/mL (100K T cells/well). Cells were allowed to rest for two hours in a 37° C. incubator, and then were transfected by gently adding 10 μL of a 22 μg/mL (by mRNA) nanoparticle suspension, resulting in a final mRNA concentration of 2 μg/mL. Cells were gently mixed with a pipette and then incubated for 24 hours in a 37° C. incubator. After incubation the cells were analyzed using an ThermoFisher Attune NXT flow cytometer. Cy5 was detected using a 638 nm laser with 670/14 nm filter. eGFP was detected using a 488 nm laser and a 530/30 nm filter. Data were analyzed using FlowJo software from BD biosciences. FACS data were first gated to exclude doublets and dead cells and then gated for GFP and Cy5. Gates for GFP+ and Cy5+were set such that a control sample (PBS treated T cells) was <0.1% positive.
# CD3+ T cells were isolated from frozen peripheral blood mononuclear cells using an EasySep Human T Cell Isolation Kit on a RoboSep automated cell isolation system from […]. T cells were plated into a round bottom 96-well plate in RPMI cell culture media supplemented with glutamax, 10% fetal bovine serum, pen-strep, and 40 ng/mL IL-2. 100 μL of cell suspension was seeded per well at a density of 1M T cells/mL (100K T cells/well). Cells were allowed to rest for two hours in a 37° C. incubator, and then were transfected by gently adding 10 μL of a 22 μg/mL (by mRNA) nanoparticle suspension, resulting in a final mRNA concentration of 2 μg/mL (unless otherwise noted). Cells were gently mixed with a pipette and then incubated for 24 hours in a 37° C. incubator. After incubation the cells were diluted with FACS buffer (BD 554657) and analyzed using a BD Fortessa flow cytometer. Data were analyzed using FlowJo software from BD biosciences.
# [4] = Quant-iT RiboGreen RNA assay: dye accessible and total (Triton) mRNA content, encapsulation; type: physicochemical
# Method: RNA content of the nanoparticles is measured using Thermo Fisher Quant-iT RiboGreen RNA Assay Kit. Dye accessible RNA, which includes both non-incorporated RNA and RNA that is near the surface of the nanoparticle, is measured by diluting the nanoparticles to approximately 1 μg/mL mRNA using HEPES buffered saline, and then adding Quant-iT reagent to the mixture. Total RNA content is measured by diluting the particles to 1 μg/mL mRNA using HEPES buffered saline, disrupting the nanoparticles by heating them to 60° C. for 30 minutes in HEPES buffered saline containing 0.5% Triton, and then adding Quant-It reagent. RNA is quantified by measuring fluorescence at 485/535 nm, and concentration is determined relative to a contemporaneously run RNA standard curve.
# [5] = Hydrodynamic diameter and polydispersity of LNPs by dynamic light scattering (DLS), Zetasizer; type: physicochemical
# Method: as §1
# [6] = Table 10: Lipid 5 and Lipid 7 LNP, theoretical total mRNA 50 μg/mL
structure (smiles),measurement,setting,value
CCCCC/C=C\C/C=C\CCCCCCCC(=O)OC[C@H](CCN(C)C)OC(=O)CCCCCCC/C=C\C/C=C\CCCCC [Lipid 5],apparent pKa of LNP (TNS),[1],6.9 and ~7
same,"LNP surface charge (zeta potential), in words",[2],"positive zeta potential at pH 5.5, and either near neutral or slightly negative charge at pH 7.4"
same,"GFP MFI, fold relative to DLn-MC3-DMA",[3]; 0.5 ug/mL and 1.0 ug/mL dose/well,> 5 fold
same,T-cell viability,"[3]; all three dose levels (0.125, 0.5 and 2 ug mRNA/mL per well), PBS control about 50%",40-45%
same,"GFP protein expression (% GFP+ cells, GFP MFI), in words","[3]; hSP34 targeted LNP with GFP mRNA, 24 hours",Dose dependent expression of GFP protein; also recorded: greater overall protein expression at all three mRNA dose levels; also recorded: outperformed both Lipid 8 and DLn-MC3-DMA
same,"LNP association with cells (% Cy5+/Cy5 MFI or % DiI+/DiI MFI), in words","[3]; hSP34 targeted LNP, 24 hours",equally associated with cells
same,"T-cell viability / tolerability, in words","[3]; hSP34 targeted LNP, 24 hours, dose as in the value",well tolerated by T-cells at and below 0.5 μg/mL dose; also recorded: consistently better tolerated by T-cells; also recorded: well tolerated by T-cells at and below 1.0 μg/mL dose; also recorded: better tolerated at higher doses; also recorded: least toxic at 1 ug/mL dose
same,% Dye Accessible mRNA,[4]; Table 10: Lipid 5 and Lipid 7 LNP,23%
same,Measured total (Triton method) mRNA,[4]; [6],43 µg/mL
same,Ribogreen Dye Accessible mRNA,[4]; [6],10 µg/mL
same,Measured total (Triton method) mRNA,"[4]; Table 11A: Lipid 5, Lipid 8 and DLn-MC3-DMA LNP, vortexer mixing, theoretical total mRNA 42.5 ug/mL",27 µg/mL
same,Ribogreen Dye Accessible mRNA,"[4]; Table 11A: vortexer mixing, theoretical total mRNA 42.5 ug/mL",4 µg/mL
same,polydispersity after antibody conjugate insertion,[5],< 0.15
same,change in particle size and PDI upon conjugate insertion,[5]; insertion of anti-CD3 hSP34-PEG2k-DSPE conjugate,larger change in hydrodynamic diameter (relative to Lipid 7 LNP); also recorded: larger change in hydrodynamic diameter (relative to Lipid 8 LNP)
